Converted amounts (≈) assume the structure as drawn. Blank lines part the entries; values can stand above or below the compound they belong to.
Legend:
Experiment in all cases: ≥ marks a high value that may be exact or a test limit, other limits are often not marked, values filed in µg/mL are converted to µM
[1] = test system: Staphylococcus aureus ATCC 25923
[2] = test system: Psychrobacter faecalis X29
[3] = test system: Candida albicans ATCC 2002
[4] = test system: Bacillus licheniformis X39
[5] = test system: Staphylococcus carnosus KHS
[6] = test system: Rhodococcus rhodochrous X15
[7] = test system: Batrachochytrium dendrobatidis JEL-197
[8] = test system: Escherichia coli ATCC 25726
[9] = test system: Candida albicans ATCC 90028
[10] = test system: Microsporum canis
[11] = test system: Aeromonas caviae
[12] = test system: Escherichia coli
[13] = test system: Aspergillus fumigatus
[14] = test system: Trichophyton simii
[15] = test system: Aspergillus niger
[16] = test system: Trichophyton rubrum
[17] = test system: Candida albicans
[18] = test system: Enterococcus faecalis
[19] = test system: Nocardia brasiliensis
[20] = test system: Cryptococcus neoformans
[21] = test system: Pseudomonas aeruginosa 77905
[22] = test system: Pseudomonas aeruginosa 78887
[23] = test system: Klebsiella pneumoniae KK3 9904
[24] = test system: Pseudomonas aeruginosa ATCC 27853
[25] = test system: Pseudomonas aeruginosa 87104
[26] = test system: Pseudomonas aeruginosa 78327
[27] = test system: Pseudomonas aeruginosa 78905
[28] = test system: Pseudomonas aeruginosa 78888
[29] = test system: Pseudomonas aeruginosa 78078
[30] = test system: Pseudomonas aeruginosa 78073
[31] = test system: Staphylococcus aureus NCTC 8325
[32] = test system: Pseudomonas aeruginosa 77733
[33] = test system: Pseudomonas aeruginosa 77319
[34] = test system: Enterobacter cloacae NHTCC 53001
[35] = test system: Escherichia coli ATCC 25922
[36] = test system: Bacillus subtilis ATCC 6633
[37] = test system: Staphylococcus epidermidis ATCC 12228
[38] = test system: Shigella dysenteriae ATCC 9752
[39] = test system: Klebsiella pneumoniae ATCC 10031
[40] = test system: Staphylococcus aureus TK784
[41] = test system: Salmonella enterica subsp. enterica serovar Typhimurium ATCC 14028
[42] = test system: Staphylococcus aureus ATCC 6538P
[43] = test system: Micrococcus luteus ATCC 10240

SMILES: CC[C@H](C)[C@H](NC(=O)[C@H](Cc1ccc(O)cc1)NC(=O)[C@H](Cc1cnc[nH]1)NC(=O)[C@H](CCCN=C(N)N)NC(=O)[C@H](CC(C)C)NC(=O)[C@H](C)NC(=O)[C@@H](NC(=O)[C@H](CC(C)C)NC(=O)[C@H](Cc1ccc(O)cc1)NC(=O)[C@H](CCCCN)NC(=O)[C@H](CC(N)=O)NC(=O)[C@H](CCSC)NC(=O)[C@H](CCC(=O)O)NC(=O)[C@H](CCC(=O)O)NC(=O)[C@@H]1CCCN1)[C@@H](C)O)C(=O)N[C@@H](CC(N)=O)C(=O)N[C@@H](CC(C)C)C(=O)N[C@H](C(=O)N[C@H](C(=O)N[C@@H](CCCN=C(N)N)C(=O)N[C@@H](CCC(N)=O)C(=O)N[C@@H](CCCN=C(N)N)C(=O)N[C@@H](Cc1ccc(O)cc1)C(N)=O)[C@@H](C)O)C(C)C [PEEMNKYLTALRHYINLVTRQRY]
- MIC [10]: 3.44 µM (≈ 10 µg/mL)
- MIC [11]: 13.7 µM (≈ 40 µg/mL)
- MIC [12]: 3.44 µM (≈ 10 µg/mL)
- MIC [13]: 27.5 µM (≈ 80 µg/mL)
- MIC [14]: 3.44 µM (≈ 10 µg/mL)
- MIC [15]: ≥ 34.4 µM
- MIC [16]: 5.16 µM (≈ 15 µg/mL)
- MIC [17]: 5.16 µM (≈ 15 µg/mL)
- MIC [18]: 3.44 µM (≈ 10 µg/mL)
- MIC [19]: 6.87 µM (≈ 20 µg/mL)
- MIC [20]: 6.87 µM (≈ 20 µg/mL)

SMILES: CC[C@H](C)[C@H](NC(=O)[C@H](Cc1cnc[nH]1)NC(=O)[C@H](CCCCN)NC(=O)CNC(=O)[C@H](C)NC(=O)[C@@H](NC(=O)[C@H](CCCCN)NC(=O)[C@H](CC(C)C)NC(=O)[C@@H](NC(=O)CNC(=O)[C@H](CCCCN)NC(=O)[C@H](Cc1ccccc1)NC(=O)[C@H](CC(C)C)NC(=O)[C@H](CO)NC(=O)[C@H](CCSC)NC(=O)[C@H](CC(C)C)NC(=O)CN)C(C)C)[C@@H](C)O)C(=O)N[C@@H](Cc1ccccc1)C(=O)N[C@@H](CCCCN)C(=O)N[C@@H](CC(N)=O)C(=O)N[C@H](C(=O)NCC(=O)NCC(=O)N[C@@H](CO)C(=O)N[C@@H](CC(C)C)C(=O)N[C@@H](CC(C)C)C(=O)N[C@@H](CC(=O)O)C(=O)N[C@@H](CCC(N)=O)C(=O)N[C@@H](C)C(=O)N[C@@H](CCCCN)C(=O)N[C@H]1CSSC[C@@H](C(=O)O)NC(=O)[C@H](CCC(=O)O)NC(=O)CNC(=O)[C@H]([C@@H](C)O)NC(=O)[C@H]([C@@H](C)CC)NC(=O)[C@H](CCCCN)NC1=O)C(C)C [GLMSLFKGVLKTAGKHIFKNVGGSLLDQAKCKITGEC]
- MIC [21]: 6 µM (≈ 23.4 µg/mL)
- MIC [22]: 6 µM (≈ 23.4 µg/mL)
- MIC [23]: 6 µM (≈ 23.4 µg/mL)
- MIC [24]: 3 µM (≈ 11.7 µg/mL)
- MIC [25]: 6 µM (≈ 23.4 µg/mL)
- MIC [26]: 6 µM (≈ 23.4 µg/mL)
- MIC [27]: 12 µM (≈ 46.7 µg/mL)
- MIC [28]: 12 µM (≈ 46.7 µg/mL)
- MIC [29]: 12 µM (≈ 46.7 µg/mL)
- MIC [30]: 6 µM (≈ 23.4 µg/mL)
- MIC [9]: ≥ 100 µM
- MIC [31]: 25 µM (≈ 97.3 µg/mL)
- MIC [32]: 12 µM (≈ 46.7 µg/mL)
- MIC [33]: 12 µM (≈ 46.7 µg/mL)
- MIC [34]: 6 µM (≈ 23.4 µg/mL)
- MIC [35]: 6 µM (≈ 23.4 µg/mL)

SMILES: CC(C)C[C@H](NC(=O)[C@H](CCCCN)NC(=O)[C@H](CCCCN)NC(=O)[C@H](CC(C)C)NC(=O)[C@H](CC(C)C)NC(=O)[C@H](CCCCN)NC(=O)[C@H](CCCCN)NC(=O)[C@H](CC(C)C)NC(=O)[C@H](Cc1c[nH]c2ccccc12)NC(=O)[C@H](CCCCN)NC(=O)[C@@H](N)CC(C)C)C(N)=O [LKWLKKLLKKL]
- MIC [36]: 1.42 µM (≈ 2 µg/mL)
- MIC [37]: 2.84 µM (≈ 4 µg/mL)
- MIC [24]: 5.67 µM (≈ 7.99 µg/mL)
- MIC [38]: 1.42 µM (≈ 2 µg/mL)
- MIC [39]: 1.42 µM (≈ 2 µg/mL)
- MIC [40]: 5.67 µM (≈ 7.99 µg/mL)
- MIC [41]: 2.84 µM (≈ 4 µg/mL)
- MIC [42]: 1.42 µM (≈ 2 µg/mL)
- MIC [43]: 2.84 µM (≈ 4 µg/mL)
- MIC [35]: 2.84 µM (≈ 4 µg/mL)

Results, then the compound that gave them:

- MIC [1]: 4.8 µM (≈ 7.58 µg/mL)
- MIC [2]: ≥ 37.5 µM
- MIC [3]: 9.5 µM (≈ 15 µg/mL)
- MIC [4]: 19 µM (≈ 30 µg/mL)
- MIC [5]: 19 µM (≈ 30 µg/mL)
- MIC [6]: 2.4 µM (≈ 3.79 µg/mL)
SMILES: CC[C@H](C)[C@H](NC(=O)[C@H](CCCCN)NC(=O)[C@H](CCCCN)NC(=O)[C@H](C)NC(=O)[C@H](CC(C)C)NC(=O)[C@H](CC(N)=O)NC(=O)[C@@H](NC(=O)[C@@H](NC(=O)[C@@H](NC(=O)[C@H](CC(N)=O)NC(=O)[C@H](CC(C)C)NC(=O)[C@@H](NC(=O)[C@@H](N)CC(N)=O)[C@@H](C)CC)[C@@H](C)O)[C@@H](C)CC)[C@@H](C)CC)C(=O)N[C@@H](CC(C)C)C(N)=O [NILNTIINLAKKIL]

- MIC [1]: 50 µM (≈ 129 µg/mL)
- MIC [7]: ≥ 50 µM
- MIC [8]: ≥ 100 µM
- MIC [9]: ≥ 100 µM
SMILES: CC[C@H](C)[C@H](NC(=O)[C@H](CO)NC(=O)[C@@H]1CCCN1C(=O)[C@@H](NC(=O)[C@H](CC(C)C)NC(=O)CNC(=O)[C@@H](NC(=O)[C@H](CC(C)C)NC(=O)[C@@H](NC(=O)[C@@H]1CCCN1C(=O)[C@H](CC(C)C)NC(=O)[C@@H](N)Cc1ccccc1)C(C)C)[C@@H](C)O)[C@@H](C)O)C(=O)N[C@H](C(=O)N1CCC[C@H]1C(=O)N[C@@H](CCCCN)C(=O)N[C@@H](CC(C)C)C(=O)N[C@H](C(=O)N[C@H]1CSSC[C@@H](C(=O)O)NC(=O)[C@H](CCCCN)NC(=O)[C@H](CCCCN)NC(=O)[C@H]([C@@H](C)O)NC(=O)[C@H](CC(C)C)NC(=O)[C@H](CC(C)C)NC1=O)C(C)C)C(C)C [FLPVLTGLTPSIVPKLVCLLTKKC]

Source: DBAASP
